{"source": "patent US20210267944A1", "about": "(BioXcel Therapeutics, Inc., priority 2018, published 2021)", "details": "for Diastolic blood pressure Max / Diastolic blood pressure Mean ± SD / Diastolic blood pressure Median / Diastolic blood pressure Min / Pulse rate, Max / Pulse rate, Mean ± SD / Pulse rate, Median / Pulse rate, Min / Respiration rate, Max / Respiration rate, Mean ± SD / Respiration rate, Median / Respiration rate, Min / Systolic blood pressure, Max / Systolic blood pressure, Mean ± SD / Systolic blood pressure, Median / Systolic blood pressure, Min: SDAT patients, IV infusion", "description": "Study drug IV infusion was to be stopped at any time if any of the following occurred: • There was more than 20 mm Hg decrease in systolic or diastolic blood pressure. • There was an isolated drop in Systolic BP<100 mm of Hg. • There was an isolated drop Diastolic BP<60 mm of Hg. • There was a decrease in heart rate of 20 beats per minute or a drop below 50 beats per minute. • Attainment of a RASS of −1 at the end of each 30 minutes infusion period.\nReturn to baseline parameters was defined as BP falling within 15 mm of Hg of baseline reading prior to drug administration or HR falling within 10 beats per minute of baseline reading prior to drug administration.", "note": "Where a name gives a salt, the structure may show the parent alone. Read-outs that look alike come from different tables or passages of the source.", "data": [{"smiles": "Cc1cccc([C@H](C)c2cnc[nH]2)c1C", "note": "[dexmedetomidine hydrochloride]", "values": [{"measurement": "all the vital signs values", "setting": "SDAT", "result": "within clinically acceptable limits"}, {"measurement": "Diastolic blood pressure Max", "setting": "00:00 Hr", "result": "90 mm of Hg"}, {"measurement": "Diastolic blood pressure Mean ± SD", "setting": "00:00 Hr", "result": "80.9 ± 9.87 mm of Hg"}, {"measurement": "Diastolic blood pressure Median", "setting": "00:00 Hr", "result": "83.5 mm of Hg"}, {"measurement": "Diastolic blood pressure Min", "setting": "00:00 Hr", "result": "64 mm of Hg"}, {"measurement": "Pulse rate, Max", "setting": "00:00 Hr", "result": 91, "unit": "beats/min"}, {"measurement": "Pulse rate, Mean ± SD", "setting": "00:00 Hr", "result": "79.0 ± 9.02", "unit": "beats/min"}, {"measurement": "Pulse rate, Median", "setting": "00:00 Hr", "result": 78.0, "unit": "beats/min"}, {"measurement": "Pulse rate, Min", "setting": "00:00 Hr", "result": 64, "unit": "beats/min"}, {"measurement": "Respiration rate, Max", "setting": "00:00 Hr", "result": 26, "unit": "breaths/min"}, {"measurement": "Respiration rate, Mean ± SD", "setting": "00:00 Hr", "result": "19.6 ± 2.50", "unit": "breaths/min"}, {"measurement": "Respiration rate, Median", "setting": "00:00 Hr", "result": 19.5, "unit": "breaths/min"}, {"measurement": "Respiration rate, Min", "setting": "00:00 Hr", "result": 17, "unit": "breaths/min"}, {"measurement": "Systolic blood pressure, Max", "setting": "00:00 Hr", "result": "169 mm of Hg"}, {"measurement": "Systolic blood pressure, Mean ± SD", "setting": "00:00 Hr", "result": "143.2 ± 13.60 mm of Hg"}, {"measurement": "Systolic blood pressure, Median", "setting": "00:00 Hr", "result": "140.0 mm of Hg"}, {"measurement": "Systolic blood pressure, Min", "setting": "00:00 Hr", "result": "125 mm of Hg"}, {"measurement": "Diastolic blood pressure Max", "setting": "00:15 Hr", "result": "92 mm of Hg"}, {"measurement": "Diastolic blood pressure Mean ± SD", "setting": "00:15 Hr", "result": "82.1 ± 8.46 mm of Hg"}, {"measurement": "Diastolic blood pressure Median", "setting": "00:15 Hr", "result": "84.0 mm of Hg"}, {"measurement": "Diastolic blood pressure Min", "setting": "00:15 Hr", "result": "70 mm of Hg"}, {"measurement": "Pulse rate, Max", "setting": "00:15 Hr", "result": 89, "unit": "beats/min"}, {"measurement": "Pulse rate, Mean ± SD", "setting": "00:15 Hr", "result": "78.2 ± 9.85", "unit": "beats/min"}, {"measurement": "Pulse rate, Median", "setting": "00:15 Hr", "result": 80.0, "unit": "beats/min"}, {"measurement": "Pulse rate, Min", "setting": "00:15 Hr", "result": 57, "unit": "beats/min"}, {"measurement": "Respiration rate, Max", "setting": "00:15 Hr", "result": 26, "unit": "breaths/min"}, {"measurement": "Respiration rate, Mean ± SD", "setting": "00:15 Hr", "result": "18.3 ± 3.20", "unit": "breaths/min"}, {"measurement": "Respiration rate, Median", "setting": "00:15 Hr", "result": 17.0, "unit": "breaths/min"}, {"measurement": "Respiration rate, Min", "setting": "00:15 Hr", "result": 15, "unit": "breaths/min"}, {"measurement": "Systolic blood pressure, Max", "setting": "00:15 Hr", "result": "155 mm of Hg"}, {"measurement": "Systolic blood pressure, Mean ± SD", "setting": "00:15 Hr", "result": "138.0 ± 10.35 mm of Hg"}, {"measurement": "Systolic blood pressure, Median", "setting": "00:15 Hr", "result": "134.5 mm of Hg"}, {"measurement": "Systolic blood pressure, Min", "setting": "00:15 Hr", "result": "122 mm of Hg"}, {"measurement": "Diastolic blood pressure Max", "setting": "00:30 Hr", "result": "89 mm of Hg"}, {"measurement": "Diastolic blood pressure Mean ± SD", "setting": "00:30 Hr", "result": "80.3 ± 7.99 mm of Hg"}, {"measurement": "Diastolic blood pressure Median", "setting": "00:30 Hr", "result": "82.5 mm of Hg"}, {"measurement": "Diastolic blood pressure Min", "setting": "00:30 Hr", "result": "66 mm of Hg"}, {"measurement": "Pulse rate, Max", "setting": "00:30 Hr", "result": 94, "unit": "beats/min"}, {"measurement": "Pulse rate, Mean ± SD", "setting": "00:30 Hr", "result": "80.5 ± 10.43", "unit": "beats/min"}, {"measurement": "Pulse rate, Median", "setting": "00:30 Hr", "result": 76.5, "unit": "beats/min"}, {"measurement": "Pulse rate, Min", "setting": "00:30 Hr", "result": 64, "unit": "beats/min"}, {"measurement": "Respiration rate, Max", "setting": "00:30 Hr", "result": 24, "unit": "breaths/min"}, {"measurement": "Respiration rate, Mean ± SD", "setting": "00:30 Hr", "result": "18.1 ± 2.73", "unit": "breaths/min"}, {"measurement": "Respiration rate, Median", "setting": "00:30 Hr", "result": 18.0, "unit": "breaths/min"}, {"measurement": "Respiration rate, Min", "setting": "00:30 Hr", "result": 13, "unit": "breaths/min"}, {"measurement": "Systolic blood pressure, Max", "setting": "00:30 Hr", "result": "155 mm of Hg"}, {"measurement": "Systolic blood pressure, Mean ± SD", "setting": "00:30 Hr", "result": "135.9 ± 10.05 mm of Hg"}, {"measurement": "Systolic blood pressure, Median", "setting": "00:30 Hr", "result": "133.5 mm of Hg"}, {"measurement": "Systolic blood pressure, Min", "setting": "00:30 Hr", "result": "120 mm of Hg"}, {"measurement": "Diastolic blood pressure Max", "setting": "00:45 Hr", "result": "86 mm of Hg"}, {"measurement": "Diastolic blood pressure Mean ± SD", "setting": "00:45 Hr", "result": "76.4 ± 9.42 mm of Hg"}, {"measurement": "Diastolic blood pressure Median", "setting": "00:45 Hr", "result": "79.0 mm of Hg"}, {"measurement": "Diastolic blood pressure Min", "setting": "00:45 Hr", "result": "62 mm of Hg"}, {"measurement": "Pulse rate, Max", "setting": "00:45 Hr", "result": 90, "unit": "beats/min"}, {"measurement": "Pulse rate, Mean ± SD", "setting": "00:45 Hr", "result": "76.0 ± 9.48", "unit": "beats/min"}, {"measurement": "Pulse rate, Median", "setting": "00:45 Hr", "result": 77.0, "unit": "beats/min"}, {"measurement": "Pulse rate, Min", "setting": "00:45 Hr", "result": 58, "unit": "beats/min"}, {"measurement": "Respiration rate, Max", "setting": "00:45 Hr", "result": 20, "unit": "breaths/min"}, {"measurement": "Respiration rate, Mean ± SD", "setting": "00:45 Hr", "result": "18.1 ± 1.91", "unit": "breaths/min"}, {"measurement": "Respiration rate, Median", "setting": "00:45 Hr", "result": 18.0, "unit": "breaths/min"}, {"measurement": "Respiration rate, Min", "setting": "00:45 Hr", "result": 15, "unit": "breaths/min"}, {"measurement": "Systolic blood pressure, Max", "setting": "00:45 Hr", "result": "160 mm of Hg"}, {"measurement": "Systolic blood pressure, Mean ± SD", "setting": "00:45 Hr", "result": "138.3 ± 14.29 mm of Hg"}, {"measurement": "Systolic blood pressure, Median", "setting": "00:45 Hr", "result": "137.0 mm of Hg"}, {"measurement": "Systolic blood pressure, Min", "setting": "00:45 Hr", "result": "118 mm of Hg"}, {"measurement": "Diastolic blood pressure Max", "setting": "01:00 Hr", "result": "90 mm of Hg"}, {"measurement": "Diastolic blood pressure Mean ± SD", "setting": "01:00 Hr", "result": "74.5 ± 8.97 mm of Hg"}, {"measurement": "Diastolic blood pressure Median", "setting": "01:00 Hr", "result": "73.5 mm of Hg"}, {"measurement": "Diastolic blood pressure Min", "setting": "01:00 Hr", "result": "63 mm of Hg"}, {"measurement": "Pulse rate, Max", "setting": "01:00 Hr", "result": 89, "unit": "beats/min"}, {"measurement": "Pulse rate, Mean ± SD", "setting": "01:00 Hr", "result": "75.3 ± 10.08", "unit": "beats/min"}, {"measurement": "Pulse rate, Median", "setting": "01:00 Hr", "result": 74.0, "unit": "beats/min"}, {"measurement": "Pulse rate, Min", "setting": "01:00 Hr", "result": 60, "unit": "beats/min"}, {"measurement": "Respiration rate, Max", "setting": "01:00 Hr", "result": 20, "unit": "breaths/min"}, {"measurement": "Respiration rate, Mean ± SD", "setting": "01:00 Hr", "result": "18.1 ± 1.73", "unit": "breaths/min"}, {"measurement": "Respiration rate, Median", "setting": "01:00 Hr", "result": 18.0, "unit": "breaths/min"}, {"measurement": "Respiration rate, Min", "setting": "01:00 Hr", "result": 15, "unit": "breaths/min"}, {"measurement": "Systolic blood pressure, Max", "setting": "01:00 Hr", "result": "160 mm of Hg"}, {"measurement": "Systolic blood pressure, Mean ± SD", "setting": "01:00 Hr", "result": "134.4 ± 15.76 mm of Hg"}, {"measurement": "Systolic blood pressure, Median", "setting": "01:00 Hr", "result": "133.0 mm of Hg"}, {"measurement": "Systolic blood pressure, Min", "setting": "01:00 Hr", "result": "110 mm of Hg"}, {"measurement": "Diastolic blood pressure Max", "setting": "01:15 Hr", "result": "84 mm of Hg"}, {"measurement": "Diastolic blood pressure Mean ± SD", "setting": "01:15 Hr", "result": "74.6 ± 10.17 mm of Hg"}, {"measurement": "Diastolic blood pressure Median", "setting": "01:15 Hr", "result": "79.5 mm of Hg"}, {"measurement": "Diastolic blood pressure Min", "setting": "01:15 Hr", "result": "61 mm of Hg"}, {"measurement": "Pulse rate, Max", "setting": "01:15 Hr", "result": 94, "unit": "beats/min"}, {"measurement": "Pulse rate, Mean ± SD", "setting": "01:15 Hr", "result": "73.4 ± 11.56", "unit": "beats/min"}, {"measurement": "Pulse rate, Median", "setting": "01:15 Hr", "result": 71.5, "unit": "beats/min"}, {"measurement": "Pulse rate, Min", "setting": "01:15 Hr", "result": 58, "unit": "beats/min"}, {"measurement": "Respiration rate, Max", "setting": "01:15 Hr", "result": 20, "unit": "breaths/min"}, {"measurement": "Respiration rate, Mean ± SD", "setting": "01:15 Hr", "result": "18.4 ± 2.20", "unit": "breaths/min"}, {"measurement": "Respiration rate, Median", "setting": "01:15 Hr", "result": 19.5, "unit": "breaths/min"}]}]}
